Results reported in patent US4738979A, “α2 -blocking derivatives of imidazole” (G. D. Searle & Co., priority 1985, dated 1988).

Legend:
[1] = system: α2 adrenergic receptors of the central nervous system; assay: inhibition of the antihypertensive action of clonidine in spontaneously hypertensive rats (SHR); format: in vivo, rat; conditions: 1 mg/kg p.o., clonidine 50 μg/kg s.c.
Protocol: In the first study, carried out upon unanaesthetized spontaneously hypertensive rats (SHR rats), the ability of the compounds of the present invention to inhibit the antihypertensive action of clonidine was determined.
The antihypertensive activity of clonidine results from an interaction with α2 adrenergic receptors of the central nervous system, i.e., central antihypertensive actions.
In this test, two groups of SHR rats are utilized as follows. In the first group, prior to subcutaneous administration of clonidine (50 μg/kg), the SHR rats are treated with the compound to be tested (1 mg/kg p.o.) dissolved in a saline vehicle. The second group (control group) of SHR rats are treated with the saline vehicle only, prior to subcutaneous administration of clonidine.
The arterial pressure is measured in the region of the median coccygeal artery according to the method of J. Roba, A. F. DeSchaepdrijver, Exp. Anim., 4, 147-162 (1971).
The results of this assay summarized in Table II, column 5, are expressed as a percentage of inhibition of the effect of clonidine.

[2] = system: bicuculline-induced tonic extension in mice; assay: protection against bicuculline-induced tonic extension in mice; format: in vivo; conditions: Mus musculus, iv, 3 hours prior to bicuculline 0.7 mg/kg i.v., read-out: Anticonvulsive effect (versus Bicuculline) (% Protection)
Protocol: (§1) In the second study the anti-convulsant effect of the compounds of the present invention was examined in two seizure models; bicuculline-induced tonic extension in mice and 3-mercaptopropionic acid (3-MPA)-induced tonic extension in mice.
(§2) In the bicuculline study, the ability of the compounds of the present invention to protect against tonic extension (involving rigidity) was evaluated as follows. Each test compound was administered to a group of ten mice at a dose of 10 mg/kg, 3 hours prior to the i.v. administration of bicuculline (0.7 mg/kg). Anticonvulsant activity in this test is expressed as percentage of animals tested. The results are given in Table II, column 6, and indicate that several compounds display significant anticonvulsive activity in this test. The anticonvulsant effect of the compounds has also been tested with respect to the tonic extension induced by 3-mercaptopropionic acid (120 mg/kg subcutaneously) in mice.

α2 -adrenergic receptors [3] = molecular target: T1, α2 -adrenergic receptors (Rattus norvegicus, UniProt P22909); assay: binding to α2-adrenergic receptors on rat brain homogenates (3H-p. aminoclonidine); conditions: 10^-7 M; for inhibition at 0.1 µM: rat brain homogenates, 0.7 nM 3H-p. aminoclonidine, read-out: % Inhibition of the Specific Binding at 10^-7 M for α2 Recep.; for affinity for α2 receptors (in words): in vitro binding assay
T1 construct: from tissue; host or cells: rat brain homogenates
T1 sequence (P22909 1-465): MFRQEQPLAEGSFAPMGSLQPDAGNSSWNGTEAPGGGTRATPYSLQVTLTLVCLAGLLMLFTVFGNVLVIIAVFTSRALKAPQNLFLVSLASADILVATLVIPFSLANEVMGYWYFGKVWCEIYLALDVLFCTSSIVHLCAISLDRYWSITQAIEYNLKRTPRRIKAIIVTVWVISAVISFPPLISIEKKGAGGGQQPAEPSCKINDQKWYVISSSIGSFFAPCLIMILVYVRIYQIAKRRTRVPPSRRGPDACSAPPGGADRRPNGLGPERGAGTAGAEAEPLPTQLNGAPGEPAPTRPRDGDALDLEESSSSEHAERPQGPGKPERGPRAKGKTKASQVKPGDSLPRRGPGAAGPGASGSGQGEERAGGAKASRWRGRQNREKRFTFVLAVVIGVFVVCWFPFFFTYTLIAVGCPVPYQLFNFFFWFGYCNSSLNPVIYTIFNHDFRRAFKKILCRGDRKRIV
Protocol: (§3) The activity of the compounds according to the invention with respect to binding of the α-adrenergic receptors was determined in vitro according to a method deriving from the works of B. R. Rouot et al., Life Sci., 25, 769 (1979) and of D. U'Prichard et al., Mol. Pharmacol., 13, 454 (1977). This method consists in measuring the binding to the receptor on rat brain homogenates, by marking by means of a specific tritriated ligand placed in competition with the product to be tested.
(§4) In the presenct case the binding to the α1 -adrenergic receptors was measured by means of 1.6 nM of ^3 H-WB 4101 and the binding to the α2 -adrenergic receptors by means of 0.7 nM of ^3 H-p. aminoclonidine, the non-specific binding being determined by 1,000 nM of phentolamine. The results are given in Table II, column 3, and are expressed in terms of percentage of inhibition of the specific binding of 10^-7 molar compound concentration.
(§5) (2) The specific binding is the total binding less the nonspecific
(§6) binding. The total binding is the binding in the absence of nonradioactiv
(§7) drug. The nonspecific binding is the binding in the presence of 1,000 nM
(§8) of phentolamine. The products of the invention are tested at a
(§9) concentration of 10^-7 molar.

[4] = system: 3-mercaptopropionic acid (3-MPA)-induced tonic extension in mice; assay: protection against 3-mercaptopropionic acid (3-MPA)-induced tonic extension in mice; format: in vivo; conditions: 100 mg/kg orally, 30 minutes prior to 3-MPA (120 mg/kg s.c.)
Protocol: as §1, §2
In the 3-MPA assay, the compounds of the present invention are administered orally at a dose of 100 mg/kg 30 minutes prior to administration of 3-MPA. Each compound was tested on a group of 5 mice; if more than 1 mouse was protected, a second group of 5 mice was tested.

α1 -adrenergic receptors = assay: binding to α1-adrenergic receptors on rat brain homogenates (3H-WB 4101); conditions: 1.6 nM 3H-WB 4101
Protocol: as §3, §4, §5, §6, §7, §8, §9

[5] = acute toxicity after oral administration to mice (LD50); conditions: mouse, in vivo, 15 days mortality
Protocol: The acute toxicity of the compounds of the present invention was studied after oral administration to mice. The products to be tested, suspended in a 1% tragacanth gum mucilage, were administered by means of an intragastric probe to groups of three male mice which had fasted since the preceding day. The doses tested are a function of the effect observed and can vary from 3,000 to 3 mg/kg or less. The mortality was recorded for 15 days. The lethal dose for 50% of the animals (LD50) was calculated according to the method of J. Litchfield and F. Wilcoxon, J. Pharmacol. Exp. Ther., 96, 99 (1949) and expressed in mg/kg. The effect of the products on the behaviour of the animals is observed until 5 to 6 hours after the treatment indicated above and after 24 hours, using a method derived from that of S. Irwin, described by R. A. Turner, Screening Methods in Pharmacology, Chapter 3, pages 22-34, Academic Press, 1965. If anomalies are noted, the observation is prolonged and smaller doses are tested.

[6] = system: peripheral vascular α2 receptors; assay: inhibition of the pressor effect of BHT 920 in pithed rats; format: in vivo, rat; conditions: 1 mg/kg i.v., BHT 920 30 μg/kg i.v.
Protocol: The α2 antagonist activity of the compounds is evaluated by the inhibition of the pressor effect (blood pressure elevation), of a specific α2 agonist agent, 4H-Thiazolo[4,5-b]azetin-2-amine, 5,6,7,8-tetrahydro-6-(2-propenyl)-, dihydrochloride, designated as BHT 920 at a concentration of 30 μg/kg i.v.) according to a method described by J. C. Van Meel et al., J. Pharmacol. Exp. Ther., 219, 760-767 (1981).
The compound to be tested is administered at 1 mg/kg i.v. The ability of the compounds tested to antagonize the pressor effects of BHT 920 is determined and expressed as percentage of inhibition. Any direct hypertensive (=α2 agonist) activity of the compounds under test can likewise be detected.

α2 -adrenergic receptors [7] = molecular target: T2, α2 -adrenergic receptors (Cavia porcellus, UniProt Q60474); assay: α2 antagonist and α2 agonist activity in isolated guinea pig ileum (clonidine)
T2 construct: from tissue; host or cells: isolated guinea pig ileum
T2 sequence (Q60474 1-464): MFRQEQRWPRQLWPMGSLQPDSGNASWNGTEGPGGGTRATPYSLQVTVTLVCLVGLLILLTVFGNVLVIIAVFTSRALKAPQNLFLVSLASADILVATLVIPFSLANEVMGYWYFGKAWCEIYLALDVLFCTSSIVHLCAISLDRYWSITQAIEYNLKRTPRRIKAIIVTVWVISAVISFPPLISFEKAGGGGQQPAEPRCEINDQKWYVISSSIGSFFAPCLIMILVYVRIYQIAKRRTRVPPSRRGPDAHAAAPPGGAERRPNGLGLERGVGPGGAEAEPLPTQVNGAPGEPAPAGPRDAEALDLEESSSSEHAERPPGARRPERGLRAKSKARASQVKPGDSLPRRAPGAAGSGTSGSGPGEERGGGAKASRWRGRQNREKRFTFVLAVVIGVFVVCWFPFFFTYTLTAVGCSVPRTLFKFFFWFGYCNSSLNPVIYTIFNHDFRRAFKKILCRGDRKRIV
Protocol: The α2 antagonist and α2 agonist activity of the compounds according to the invention was determined upon isolated organs according to a model described by G. M. Drews, Br. J. Pharmaco., 64, 293-300 (1978).
This model is based upon the principle that the stimulation of the cholinergic nervous transmissions of the guinea pig ileum causes the liberation of acetyl choline, which in turn causes contractions of the ileum.
The stimulation of the α2 -adrenergic receptors inhibits the activity of the cholinergic nerve and consequently reduces all response resulting from a timulation of the latter. Thus the contractions of the ileum induced by electric stimulation of the tissue are inhibited by clonidine, an α2 agonist, in proportion to the dose. This inhibition is specifically displaced by the α2 antagonists and not by the α1 antagonists.
The method utilized can be summarized as follows: three dose-response curves to clonidine are established at an interval of 60 minutes. Two concentrations of the product to be tested are added successively 10 minutes before the realization of the second and third clonidine curves. Next, after washing, a dose-response curve is established with the product to be tested.
The dose-response curves are calculated as a percentage of the maximum inhibition obtained for the first curve. In this system the products having an α2 antagonist activity displace the dose-response curve to clonidine. The α2 antagonist activity, expressed in pA2 value, shown in column 4, is calculated according to J. M. Van Rossum, Arch. Int. Pharmacodyn., 143, 299-300 (1963).
A reduction of the contractions induced by the tested product alone indicates an α2 agonist effect. This activity is expressed in--log ED50 (the--logarithm of the concentration of the product giving 50% of the maximum inhibition obtained with clonidine).
The higher the pA2 value, the higher the α2 antagonist activity; the higher the--log ED50 value (i.e., the pA2 agonist activity), the higher the α2 agonist activity.

Row | Compound | α2 Antagonist (% Inhibition of the Antihypertension of Clonidine) [1] | responders at 10 mg/kg [2] | inhibition at 0.1 µM (α2 -adrenergic receptors [3]) | anticonvulsant effect versus 3-MPA (in words) [4] | % Inhibition of the Specific Binding at 10^-7 M for α1 Recep. (α1 -adrenergic receptors) | affinity for α2 receptors (in words) (α2 -adrenergic receptors [3]) | LD50 at 360 h [5] | α2 antagonist activity, inhibition of pressor effect of BHT 920 (in words) [6] | EC50 (α2 -adrenergic receptors [7]; 50% of maximum inhibition obtained with clonidine, read-out: α2 Agonist Activity (-log ED50) (converted)) | Kb (α2 -adrenergic receptors [7]; versus clonidine, read-out: α2 Antagonist Activity (pA2) (converted))
1 | CC(Cc1c[nH]cn1)(c1ccccc1)c1ccccc1 [Compound 10, 4(5)-[1-(2,2-diphenyl)-propyl]imidazole] | 46% | 27% | 6% | potent anticonvulsant effect | 0% | – | – | – | – | –
2 | Fc1cccc(F)c1C(Cc1c[nH]cn1)c1ccccc1 (centres unmarked) [Compound 27, 4(5)-{[2-(2-fluorophenyl)-2-(6'-fluorophenyl)]ethyl}imidazole] | – | – | 86% | potent anticonvulsant effect | 14% | high affinity | 173 mg/kg | – | – | –
3 | Cc1ccc(C(Cc2c[nH]cn2)c2ccccc2)c(C)c1 (centres unmarked) [Compound 24] | 93% | 0% | 34% | potent anticonvulsant effect | 0% | – | – | – | – | –
4 | Cc1[nH]cnc1CC(c1ccccc1)c1ccccc1 [Compound 7, 4(5)-(2,2-diphenylethyl)-5(4)-methyl imidazole] | 82% | 20% | 23% | – | 12% | – | – | very active as α2 antagonist agents | 2000 nM | 50.1 nM
5 | c1ccc(-c2ccc(C(Cc3c[nH]cn3)c3ccccc3)cc2)cc1 (centres unmarked) [Compound 29, 4(5)-{[2-(4-biphenyl)-2-phenyl]ethyl}imidazole] | – | – | 23% | potent anticonvulsant effect | 15% | – | > 300 mg/kg | – | – | –
6 | CC(O)(c1c[nH]cn1)C(c1ccccc1)c1ccccc1 (centres unmarked) [Compound 3] | 67% | 10% | 10% | potent anticonvulsant effect | 0% | – | – | – | – | –
7 | Fc1ccccc1C(Cc1c[nH]cn1)c1ccccc1 (centres unmarked) [Compound 28, 4(5)-{[2-(2-fluorophenyl)-2-phenyl]ethyl}imidazole] | – | – | 95% | potent anticonvulsant effect | 8% | high affinity | 94 mg/kg | – | – | –
8 | Cc1ccc(C(Cc2c[nH]cn2)c2ccccc2)cc1C (centres unmarked) [Compound 22] | 57% | 20% | 22% | – | 4% | – | 155 mg/kg | very active as α2 antagonist agents | – | –
9 | COc1ccc(C(Cc2c[nH]cn2)c2ccc(OC)cc2)cc1 [Compound 23] | 40% | 10% | 20% | – | 0% | – | – | very active as α2 antagonist agents | – | –
